Laboratory results published in publication PMC12311110 (Nature Communications, 2025).
Where two headings read alike, the source gives them in different places. No end group written: not given here.

What was measured:
[1] = tested on: HeLa lines expressing the BioID1 chimeric versions; assay: GLUT1 and α5β1-integrin trafficking (lysosomal missorting/colocalization with LAMP1) after biotin incubation; format: cell-based, human; conditions: 24 h incubation with 50 µM biotin; HeLa lines expressing the BioID1 chimeras; confocal imaging
Experimental: To explore the robustness of the proximity labelling, we performed an initial biased identification of the biotinylated proteins using western analysis of target proteins. Although 12 h incubation with biotin was enough to label some interactors, we chose to perform all experiments using 24 h incubation to maximise the detection of weak and low abundance proximity proteins, and the potential to identify cargo proteins transiting through the sub-domains (Supplementary Fig. 2H). Importantly, we tested whether the actual biotin-labelling process had any detectable effect on Retromer and Retriever-dependent cargo sorting.
HeLa cells were seeded onto 13 mm coverslips. […]
Confocal microscope images were taken on a Leica SP5-II confocal laser scanning microscope attached to a Leica DMI 6000 inverted epifluorescence microscope or a Leica SP8 confocal laser scanning microscope attached to a Leica DM l8 inverted epifluorescence microscope (Leica Microsystems), with a 63x UV oil immersion lens, numerical aperture 1.4 (Leica Microsystems, 506192). […] The system operated in simultaneous twin-cam mode, and the desired fluorescence was selected through the use of either a 525/50 nm or 617/73 nm bandpass filter for the green or red channel, respectively. […]

hRetromer = target: T1, hRetromer (Homo sapiens, UniProt O75436+Q96QK1+Q9UBQ0); assay: Isothermal titration calorimetry (ITC) of binding to Retromer; conditions: 25 °C; for -TΔS / ΔG / ΔH / Kd: ITC, mean of triplicate titrations
T1 construct: GST (pGEX4T-2, thrombin site plus linker) (N, cleaved yes); made in house; host or cells: E. coli BL21 (DE3)
Experimental: All the bacteria constructs were expressed in BL21 (DE3) cells using the autoinduction method. In brief, cultures grown in complex medium were incubated at 37 °C for 4 h, followed by overnight growth at 20 °C before harvesting for purification. […] In all cases, the soluble fractions clarified by centrifugation were loaded onto pre-equilibrated glutathione sepharose (GE healthcare) for initial purification. For Retromer, an additional Talon® resin purification step was performed to ensure the correct stoichiometry. GST-tag removal was carried out co-column overnight by adding thrombin for Human Retromer and PreScission protease for TBC1D13. The GST-tag removed fraction was further purified by size-exclusion chromatography (SEC) using a Superdex 200 (16/600) column (GE Healthcare) equilibrated with buffer containing 50 mM Tris-HCl pH 7.5, 200 mM NaCl, 2 mM β-ME.
The effect of cyclic peptide was assessed by pre-mixing 140 µM RT-D1 into 14 µM Retromer before titrating with 1 mM of native DENND4C1189-1206 peptide. For the binding experiment between Retromer and TBC1D13, 530 µM of TBC1D13 was titrated into 14 µM Retromer. The effect of the cyclic peptide was tested using the same concentration of RT-D1 as described above. All ITC experiments consisted of an initial 0.4 μl (not used in data processing), followed by 12 serial injections of 3.22 μl each with 180 sec intervals. The resulting titration data were integrated with the Malvern software package by fitting and normalised data to a single-site binding model. This yielded the thermodynamic parameters for all binding experiments, including the dissociation constant (Kd), enthalpy (∆H), Gibbs free energy (∆G) and -T∆S. The stoichiometry (N) was refined initially, and if the value was close to 1, then it was set to exactly 1.0 for calculation. The data presented are the mean of triplicate titrations for each experiment.

[2] = tested on: colocalization with VPS35 or SNX1 in HeLa cells; assay: Immunofluorescence colocalization analysis (Manders/Pearson coefficients); format: cell-based, human; conditions: mean of the 3 experiment averages (n = 3)
Experimental: HeLa cells were seeded onto 13 mm coverslips. Cells were fixed in 4% (v/v) paraformaldehyde (PFA) (Pierce, 28906) in PBS for 20 min and permeabilised in 0.1% (v/v) Triton X-100 in PBS (Sigma-Aldrich), or in 0.1% (w/v) saponin (sigma-Aldrich) in PBS when labelling LAMP1 compartments, for 5 min followed by blocking with 2% (w/v) BSA (Sigma, 05482) in PBS for 30 min. Coverslips were stained with primary antibodies for 1 hr followed by secondary antibodies for 30 min, then mounted onto glass microscope slides with Fluoromount-G (Invitrogen, 00-4958-02).
Confocal microscope images were taken on a Leica SP5-II confocal laser scanning microscope attached to a Leica DMI 6000 inverted epifluorescence microscope or a Leica SP8 confocal laser scanning microscope attached to a Leica DM l8 inverted epifluorescence microscope (Leica Microsystems), with a 63x UV oil immersion lens, numerical aperture 1.4 (Leica Microsystems, 506192). For the Leica SP8 microscope, ‘lightning’ adaptive image restoration was used to generate deconvolved representative images. Colocalization analysis was performed using Volocity 6.3 software (PerkinElmer) or JACOP plugin from ImageJ-FIJI software. Spinning disk high-resolution images were acquired on an IXplore SpinSR system (Olympus) consisting of an IX83 microscope frame with a CO2 and temperature chamber (Olympus), SoRa W1 twin cam spinning disk unit (Yokogawa) and two back-thinned Fusion BT sCMOS cameras (Hamamatsu). A 488 nm or 561 nm laser provided excitation for the green and red channels, respectively. The SoRa disk with an additional 3.2x magnification changer was used for imaging with excitation light focused to the sample using a 60x/1.4NA oil immersion lens. The system operated in simultaneous twin-cam mode, and the desired fluorescence was selected through the use of either a 525/50 nm or 617/73 nm bandpass filter for the green or red channel, respectively.

[3] = 1 mM DENND4C1189-1206 peptide (native or L1204A) titrated into 14 µM Retromer
[4] = 140 µM RT-D1 pre-mixed into 14 µM Retromer, then titrated with 1 mM native DENND4C1189-1206 peptide

## O=C(O)CCCC[C@@H]1SC[C@@H]2NC(=O)N[C@@H]21 [biotin]
[1]
  Effect of biotin labelling on trafficking of GLUT1 or α5β1-integrin: did not detect significant changes

## AKVVQREDVETGLDPASL [hDENND4C1189-1206 L1204A]
hRetromer; [3]
  -TΔS: No binding detected
  ΔG: No binding detected
  ΔH: No binding detected
hRetromer; Microcal PEAQ-ITC, 1 mM DENND4C1189-1206 peptide (native or L1204A) titrated into 14 µM Retromer, single-site binding model
  Kd: No binding detected

## AKVVQREDVETGLDPLSL [hDENND4C1189-1206]
hRetromer; Microcal PEAQ-ITC, 1 mM DENND4C1189-1206 peptide (native or L1204A) titrated into 14 µM Retromer, single-site binding model, read-out: Kd
  Kd: 15.4 ± 0.85 µM

## Ac-yIIDTPLGVFLSSLKRC-NH2 [RT-D1, reference compound]
hRetromer; ITC competition, 140 µM RT-D1 pre-mixed into 14 µM Retromer, 1 mM DENND4C1189-1206 peptide titrated
  Effect of competing RT-D1 on binding of the DENND4C PL-containing peptide: blocked

## GFP-DENND4C L1201A
[2]
  GFP-DENND4C dots/section: 11.1
  M1 GFP-DENND4C/VPS35 (Manders coefficient): 0.06333
  M2 GFP-DENND4C/VPS35 (Manders coefficient): 0.06433

## GFP-DENND4C WT
[2]
  GFP-DENND4C dots/section: 55.5
  M1 GFP-DENND4C/VPS35 (Manders coefficient): 0.4133
  M2 GFP-DENND4C/VPS35 (Manders coefficient): 0.28

## hDENND4C1189-1206 + RT-D1: native DENND4C1189-1206 peptide titrated into Retromer pre-mixed with 140 µM RT-D1 (AKVVQREDVETGLDPLSL; premixed with Retromer and RT-D1; UniProt Q5VZ89 1189-1206, looked up, fragment)
hRetromer; [4]
  -TΔS: No binding detected
  Kd: No binding detected
  ΔG: No binding detected
  ΔH: No binding detected
